Assay results: ChEMBL document CHEMBL4411290, “Rogersonins A and B, Imidazolone N-Oxide-Incorporating Indole Alkaloids from a verG Disruption Mutant of Clonostachys rogersoniana” (J Nat Prod, 2019)
Calls of active or inactive are those of the source.

Experiments:
Format in all cases: functional, cell-based
A549 = test: Cytotoxicity against human A549 cells assessed as reduction in cell viability at 50 uM incubated for 48 hrs by MTS assay
T-24 = test: Cytotoxicity against human T24 cells assessed as reduction in cell viability at 50 uM incubated for 48 hrs by MTS assay
HeLa = test: Cytotoxicity against human HeLa cells assessed as reduction in cell viability at 50 uM incubated for 48 hrs by MTS assay
HepG2 = test: Cytotoxicity against human HepG2 cells assessed as reduction in cell viability at 50 uM incubated for 48 hrs by MTS assay
HOS = test: Cytotoxicity against human HOS cells assessed as reduction in cell viability at 50 uM incubated for 48 hrs by MTS assay
ACHN = test: Cytotoxicity against human ACHN cells assessed as reduction in cell viability at 50 uM incubated for 48 hrs by MTS assay
SH-SY5Y = test: Cytotoxicity against human SH-SY5Y cells assessed as reduction in cell viability at 50 uM incubated for 48 hrs by MTS assay

Measured: Activity

CC1=[N+]([O-])[C@](Cc2c[nH]c3ccccc23)([C@H](CC(=O)[C@H](C)O)C(=O)O[C@@H](C)CC[C@@H]2C=CC(=O)O2)NC1=O
inactive: all assays above

CC1=[N+]([O-])[C@](Cc2c[nH]c3ccccc23)([C@H]2CC(=O)[C@@H](C)OC(=O)/C=C/[C@@H](O)CC[C@@H](C)OC2=O)NC1=O
inactive: all assays above
